From US20250195521A1 (Revolution Medicines, Inc., priority 2020, published 2025)
Read-outs that look alike come from different tables or passages of the source.

Legend:
KRAS WT = KRAS WT (Homo sapiens (Human), UniProt P01116+P62937); assay: Ras-Raf disruption/FRET/MOA assay, KRAS WT; type: biochemical; conditions: read-out: KRAS WT FRET IC50
From the text: (§1) Disruption of B-Raf Ras-Binding Domain (BRAF^RBD) Interaction with K-Ras by Compounds of the Invention (Also Called a FRET Assay or an MOA Assay)
(§2) Note—The following protocol describes a procedure for monitoring disruption of K-Ras G12C (GMP-PNP) binding to BRAF^RBD by a compound of the invention. This protocol may also be executed substituting other Ras proteins or nucleotides, such as K-Ras G12D and K-Ras G13D.
(§3) The purpose of this biochemical assay was to measure the ability of test compounds to facilitate ternary complex formation between a nucleotide-loaded K-Ras isoform and Cyclophilin A; the resulting ternary complex disrupts binding to a BRAF^RBD construct, inhibiting K-Ras signaling through a RAF effector. Data is reported as IC50 values.
(§4) In assay buffer containing 25 mM HEPES pH 7.3, 0.002% Tween20, 0.1% BSA, 100 mM NaCl and 5 mM MgCl2, tagless Cyclophilin A, His6-K-Ras-GMPPNP, and GST-BRAF^RBD were combined in a 384-well assay plate at final concentrations of 25 μM, 12.5 nM, and 50 nM, respectively. Compound was present in plate wells as a 10-point 3-fold dilution series starting at a final concentration of 30 μM. After incubation at 25° C. for 3 hours, a mixture of anti-His Eu—W1024 and anti-GST allophycocyanin was then added to assay sample wells at final concentrations of 10 nM and 50 nM, respectively, and the reaction incubated for an additional 1.5 hours. […] Compounds that facilitate disruption of a K-Ras: RAF complex were identified as those eliciting a decrease in the TR-FRET ratio relative to DMSO control wells.

KRAS G13D = KRAS G13D (Homo sapiens (Human), UniProt P01116+P62937, G13D); assay: Ras-Raf disruption/FRET/MOA assay, KRAS G13D; type: biochemical; conditions: read-out: KRAS G13D FRET IC50
Chain of KRAS G13D (P01116 other isoform, or with tags, fused parts or gaps G13D): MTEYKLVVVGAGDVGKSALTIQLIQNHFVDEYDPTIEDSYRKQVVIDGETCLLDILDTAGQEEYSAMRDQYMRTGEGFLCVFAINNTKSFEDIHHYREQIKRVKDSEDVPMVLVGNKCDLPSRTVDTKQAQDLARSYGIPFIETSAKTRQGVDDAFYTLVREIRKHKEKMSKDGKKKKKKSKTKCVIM
Chain of KRAS G13D (P62937 whole entry): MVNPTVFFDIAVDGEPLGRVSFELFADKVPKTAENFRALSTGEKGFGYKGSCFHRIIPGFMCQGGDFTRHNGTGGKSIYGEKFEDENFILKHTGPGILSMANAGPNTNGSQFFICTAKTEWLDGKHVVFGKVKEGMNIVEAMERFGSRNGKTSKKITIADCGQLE
From the text: as §1, §2, §3, §4

KRAS G12S = KRAS G12S (Homo sapiens (Human), UniProt P01116+P62937, G12S); assay: Ras-Raf disruption/FRET/MOA assay, KRAS G12S; type: biochemical; conditions: read-out: KRAS G12S FRET IC50
Chain of KRAS G12S (P01116 other isoform, or with tags, fused parts or gaps G12S): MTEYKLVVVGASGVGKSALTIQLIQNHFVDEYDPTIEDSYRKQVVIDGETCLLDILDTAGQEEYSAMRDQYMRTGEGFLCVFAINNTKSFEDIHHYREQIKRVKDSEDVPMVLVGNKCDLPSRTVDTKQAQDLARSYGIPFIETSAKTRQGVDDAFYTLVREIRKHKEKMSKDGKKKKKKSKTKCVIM
Chain of KRAS G12S (P62937 whole entry): as the sequence (P62937 whole entry) above
From the text: as §1, §2, §3, §4

KRAS G13C = KRAS G13C (Homo sapiens (Human), UniProt P01116+P62937, G13C); assay: Ras-Raf disruption/FRET/MOA assay, KRAS G13C; type: biochemical; conditions: read-out: KRAS G13C FRET IC50
Chain of KRAS G13C (P01116 other isoform, or with tags, fused parts or gaps G13C): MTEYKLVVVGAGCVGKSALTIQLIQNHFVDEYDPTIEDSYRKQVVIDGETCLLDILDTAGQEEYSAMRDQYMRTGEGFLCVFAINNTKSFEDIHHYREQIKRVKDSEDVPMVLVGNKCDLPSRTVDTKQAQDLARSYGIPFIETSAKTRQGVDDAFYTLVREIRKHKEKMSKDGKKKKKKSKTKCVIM
Chain of KRAS G13C (P62937 whole entry): as the sequence (P62937 whole entry) above
From the text: as §1, §2, §3, §4

KRAS G12V = KRAS G12V (Homo sapiens (Human), UniProt P01116+P62937, G12V); assay: Ras-Raf disruption/FRET/MOA assay, KRAS G12V; type: biochemical
Chain of KRAS G12V (P01116 other isoform, or with tags, fused parts or gaps G12V): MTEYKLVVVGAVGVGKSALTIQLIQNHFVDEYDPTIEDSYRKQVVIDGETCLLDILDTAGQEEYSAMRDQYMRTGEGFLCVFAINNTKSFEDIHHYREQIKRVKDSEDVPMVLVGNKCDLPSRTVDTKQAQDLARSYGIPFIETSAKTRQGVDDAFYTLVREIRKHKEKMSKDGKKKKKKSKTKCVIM
Chain of KRAS G12V (P62937 whole entry): as the sequence (P62937 whole entry) above
From the text: as §1, §2, §3, §4

KRAS G12D = KRAS G12D (Homo sapiens (Human), UniProt P01116+P62937, G12D); assay: Ras-Raf disruption/FRET/MOA assay, KRAS G12D; type: biochemical; conditions: read-out: KRAS G12D FRET IC50
Chain of KRAS G12D (P01116 other isoform, or with tags, fused parts or gaps G12D): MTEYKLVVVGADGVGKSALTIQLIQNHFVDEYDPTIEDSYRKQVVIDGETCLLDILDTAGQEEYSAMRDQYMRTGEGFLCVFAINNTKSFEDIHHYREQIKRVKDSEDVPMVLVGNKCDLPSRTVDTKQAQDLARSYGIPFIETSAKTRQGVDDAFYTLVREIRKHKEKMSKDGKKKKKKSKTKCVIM
Chain of KRAS G12D (P62937 whole entry): as the sequence (P62937 whole entry) above
From the text: as §1, §2, §3, §4

KRAS G12C = KRAS G12C (Homo sapiens (Human), UniProt P01116+P62937, G12C); assay: Ras-Raf disruption/FRET/MOA assay, KRAS G12C; type: biochemical; conditions: read-out: KRAS G12C FRET data IC50
Chain of KRAS G12C (P01116-2 other isoform, or with tags, fused parts or gaps G12C): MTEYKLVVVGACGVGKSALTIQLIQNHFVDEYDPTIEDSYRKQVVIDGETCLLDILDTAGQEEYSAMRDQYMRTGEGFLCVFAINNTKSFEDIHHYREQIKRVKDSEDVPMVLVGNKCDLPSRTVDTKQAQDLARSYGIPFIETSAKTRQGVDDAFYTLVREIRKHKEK
Chain of KRAS G12C (P62937 whole entry): as the sequence (P62937 whole entry) above
From the text: as §1, §2, §3, §4

NRAS G12C = NRAS G12C (Homo sapiens (Human), UniProt P01111+P62937, G12C); assay: Ras-Raf disruption/FRET/MOA assay, NRAS G12C; type: biochemical; conditions: read-out: NRAS G12C FRET data IC50
Chain of NRAS G12C (P01111 whole entry G12C): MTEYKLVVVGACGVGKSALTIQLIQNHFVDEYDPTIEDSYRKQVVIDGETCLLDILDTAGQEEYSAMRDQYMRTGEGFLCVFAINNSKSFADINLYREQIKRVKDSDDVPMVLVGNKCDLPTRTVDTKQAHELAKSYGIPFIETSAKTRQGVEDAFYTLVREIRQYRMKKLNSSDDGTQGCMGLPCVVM
Chain of NRAS G12C (P62937 whole entry): as the sequence (P62937 whole entry) above
From the text: as §1, §2, §3, §4

AsPC-1 (K-Ras G12D) [1] = assay: Potency assay: pERK; type: cell-based, human; conditions: Homo sapiens, ASPC1, read-out: pERK EC50
How it was run: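 pERK decrease measured after 4 h compound treatment at 37 °C (10 three-fold dilutions, duplicate wells), by either fixed-cell In-Cell Western with DRAQ5 counterstain or AlphaLISA on lysates. Signal fitted against log concentration with a four-parameter model to give IC50.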

NCI-H358 (K-Ras G12C) = assay: CellTiter-Glo cell viability assay, H358; type: cell-based, human; conditions: Homo sapiens, NCI-H358, 120 h, read-out: H358 Cell Viability IC50, K-Ras G12C, 5-day treatment
Procedure: Note—The following protocol describes a procedure for monitoring cell viability of K-Ras mutant cancer cell lines in response to a compound of the invention. Other RAS isoforms may be employed, though the number of cells to be seeded will vary based on cell line used.
Test compounds (132.5 nL) were directly dispensed into the assay plates containing cells. […] On day 5, assay plates and their contents were equilibrated to room temperature for approximately 30 minutes. […] Luminescence was measured using the PerkinElmer Enspire. Data were normalized by the following: (Sample signal/Avg. DMSO)*100. The data were fit using a four-parameter logistic fit.

AsPC-1 (K-Ras G12D) [2] = assay: CellTiter-Glo cell viability assay, AsPC-1; type: cell-based, human; conditions: Homo sapiens, ASPC1, 120 h, read-out: AsPC-1 Cell Viability IC50
How it was run: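 Viability measured by CellTiter-Glo luminescence on day 5 following direct addition of compound to plated cells. Values expressed as percent of mean DMSO signal; curves fitted with a four-parameter logistic model.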

Chain of KRAS WT (P01116 other isoform, or with tags, fused parts or gaps): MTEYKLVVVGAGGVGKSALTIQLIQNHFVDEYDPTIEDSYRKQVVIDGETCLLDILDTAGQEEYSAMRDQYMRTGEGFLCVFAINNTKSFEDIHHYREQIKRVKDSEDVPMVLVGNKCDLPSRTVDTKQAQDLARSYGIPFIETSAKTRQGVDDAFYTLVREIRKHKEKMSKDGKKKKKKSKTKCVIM
Chain of KRAS WT (P62937 whole entry, the tested form may be a part): as the sequence (P62937 whole entry) above

Row | SMILES | EC50 (AsPC-1 (K-Ras G12D) [1]) [nM] | IC50 (NCI-H358 (K-Ras G12C)) [nM] | IC50 (AsPC-1 (K-Ras G12D) [2]) [nM] | other results
1 | CCn1c(-c2cccnc2[C@@H](C)OC)c2c3cc(ccc31)-c1cc(O)cc(c1)C[C@H](NC(=O)[C@H](C(C)C)N(C)C(=O)[C@H]1CCN(C(=O)[C@H]3CN3)C1)C(=O)N1CCC[C@H](N1)C(=O)OCC(C)(C)C2 (atropisomer, axis not shown) [Example 43B] | – | – | – | IC50 (KRAS WT): 1000 to 10000 nM
2 | CCn1c(-c2cnccc2COC)c2c3cc(ccc31)-c1cc(O)cc(c1)C[C@H](NC(=O)[C@H](C(C)C)N(C)C(=O)CCN(C)C(=O)[C@H]1CN1)C(=O)N1CCC[C@H](N1)C(=O)OCC(C)(C)C2 (single isomer, unassigned) [Example 41] | – | – | – | IC50 (KRAS G13D): 100 to 1000 nM; IC50 (KRAS G12S): 100 to 1000 nM; IC50 (KRAS G13C): 10 to 100 nM; IC50 (KRAS G12V; read-out: KRAS G12V FRET IC50): 100 to 1000 nM; IC50 (KRAS G12D): 100 to 1000 nM; IC50 (KRAS WT): 100 to 1000 nM; IC50 (KRAS G12C): < 10 nM; IC50 (NRAS G12C): < 10 nM
3 | CCn1c(-c2cccnc2[C@H](C)OC)c2c3cc(ccc31)-c1cccc(c1)C[C@H](NC(=O)[C@H](C(C)C)N(C)C(=O)CCN=C=NCc1ccccc1OC)C(=O)N1CCC[C@H](N1)C(=O)OCC(C)(C)C2 [Example 73] | – | – | – | IC50 (KRAS G12V; read-out: KRAS G12V FRET IC50): 1000 to 10000 nM
4 | CCn1c(-c2cccnc2[C@H](C)OC)c2c3cc(ccc31)-c1cccc(c1)C[C@H](NC(=O)[C@H](C(C)C)N(C)C(=O)[C@H]1CC[C@H](N=C=NCc3ccccc3OC)C1)C(=O)N1CCC[C@H](N1)C(=O)OCC(C)(C)C2 [Example 76] | – | – | – | IC50 (KRAS G12V; read-out: KRAS G12V FRET IC50): 1000 to 10000 nM
5 | CCn1c(-c2cccnc2[C@H](C)OC)c2c3cc(ccc31)-c1cccc(c1)C[C@H](NC(=O)[C@H](C(C)C)N(C)C(=O)[C@H]1CC[C@H](N=C=NC(C)(C)C)C1)C(=O)N1CCC[C@H](N1)C(=O)OCC(C)(C)C2 [Example 125] | – | – | – | IC50 (KRAS G12V; read-out: KRAS G12V FRET IC50): 1000 to 10000 nM
6 | CC[C@@H]1N[C@@H]1C(=O)N(C)CC(=O)N(C)[C@H](C(=O)N[C@H]1Cc2cc(O)cc(c2)-c2ccc3c(c2)c(c(-c2cccnc2[C@H](C)OC)n3CC)CC(C)(C)COC(=O)[C@@H]2CCCN(N2)C1=O)C(C)C [Example 263] | < 5000 | 10 to 100 | 100 to 1000 | –
7 | CCn1c(-c2cccnc2[C@H](C)OC)c2c3cc(ccc31)-c1cc(O)cc(c1)C[C@H](NC(=O)[C@H](C(C)C)N(C)C(=O)CN(C)C(=O)[C@@H]1N[C@@H]1C(C)C)C(=O)N1CCC[C@H](N1)C(=O)OCC(C)(C)C2 [Example 264] | < 5000 | 10 to 100 | 100 to 1000 | –
8 | CCn1c(-c2cccnc2[C@H](C)OC)c2c3cc(ccc31)-c1cc(O)cc(c1)C[C@H](NC(=O)[C@H](C(C)C)N(C)C(=O)CN(C)C(=O)[C@H]1N[C@H]1C(C)C)C(=O)N1CCC[C@H](N1)C(=O)OCC(C)(C)C2 [Example 265] | < 5000 | 10 to 100 | 100 to 1000 | –
9 | CCn1c(-c2cccnc2[C@H](C)OC)c2c3cc(ccc31)-c1cc(O)cc(c1)C[C@H](NC(=O)[C@H](C(C)C)N(C)C(=O)CN(C)C(=O)[C@H]1CN1CC(=O)N(C)C)C(=O)N1CCC[C@H](N1)C(=O)OCC(C)(C)C2 (stereo partly shown) [Example 270] | < 5000 | 10 to 100 | 100 to 1000 | –
10 | CCn1c(-c2cccnc2[C@H](C)OC)c2c3cc(ccc31)-c1cc(O)cc(c1)C[C@H](NC(=O)[C@H](C(C)C)N(C)C(=O)CN(C)C(=O)[C@H]1CN1CCCC#N)C(=O)N1CCC[C@H](N1)C(=O)OCC(C)(C)C2 (stereo partly shown) [Example 273] | < 5000 | < 10 | 100 to 1000 | –
11 | CCn1c(-c2cccnc2[C@H](C)OC)c2c3cc(ccc31)-c1cc(O)cc(c1)C[C@H](NC(=O)[C@H](C(C)C)N(C)C(=O)CN(C)C(=O)[C@@H]1CN1CCCC#N)C(=O)N1CCC[C@H](N1)C(=O)OCC(C)(C)C2 (stereo partly shown) [Example 274] | < 5000 | < 10 | 100 to 1000 | –
12 | CCn1c(-c2cccnc2[C@H](C)OC)c2c3cc(ccc31)-c1cc(O)cc(c1)C[C@H](NC(=O)[C@H](C(C)C)N(C)C(=O)CN(C)C(=O)[C@@H]1CN1C1COC1)C(=O)N1CCC[C@H](N1)C(=O)OCC(C)(C)C2 (stereo partly shown) [Example 276] | < 5000 | 10 to 100 | 1000 to 10000 | –
13 | CCn1c(-c2cccnc2[C@H](C)OC)c2c3cc(ccc31)-c1cc(O)cc(c1)C[C@H](NC(=O)[C@H](C(C)C)N(C)C(=O)CN(C)C(=O)[C@H]1CN1CC1COC1)C(=O)N1CCC[C@H](N1)C(=O)OCC(C)(C)C2 (stereo partly shown) [Example 277] | < 5000 | 10 to 100 | 100 to 1000 | –
14 | CCn1c(-c2cccnc2[C@H](C)OC)c2c3cc(ccc31)-c1cc(O)cc(c1)C[C@H](NC(=O)[C@H](C(C)C)N(C)C(=O)CN(C)C(=O)[C@H]1CN1CC1(C)COC1)C(=O)N1CCC[C@H](N1)C(=O)OCC(C)(C)C2 (stereo partly shown) [Example 279] | < 5000 | < 10 | 100 to 1000 | –
15 | CCn1c(-c2cccnc2[C@H](C)OC)c2c3cc(ccc31)-c1cc(O)cc(c1)C[C@H](NC(=O)[C@H](C(C)C)N(C)C(=O)CN(C)C(=O)[C@@H]1CN1CC1(C)COC1)C(=O)N1CCC[C@H](N1)C(=O)OCC(C)(C)C2 (stereo partly shown) [Example 280] | < 5000 | < 10 | 1000 to 10000 | –
16 | CCn1c(-c2cccnc2[C@H](C)OC)c2c3cc(ccc31)-c1cc(O)cc(c1)C[C@H](NC(=O)[C@H](C(C)C)N(C)C(=O)CN(C)C(=O)[C@@H]1N[C@H]1C1COC1)C(=O)N1CCC[C@H](N1)C(=O)OCC(C)(C)C2 [Example 283] | < 5000 | 10 to 100 | 100 to 1000 | –
17 | CCn1c(-c2cccnc2[C@H](C)OC)c2c3cc(ccc31)-c1cc(O)cc(c1)C[C@H](NC(=O)[C@H](C(C)C)N(C)C(=O)CN(C)C(=O)[C@@H]1N[C@@H]1C1CCC1)C(=O)N1CCC[C@H](N1)C(=O)OCC(C)(C)C2 [Example 287] | < 5000 | 10 to 100 | 100 to 1000 | –
18 | CCn1c(-c2cccnc2[C@H](C)OC)c2c3cc(ccc31)-c1cc(O)cc(c1)C[C@H](NC(=O)[C@H](C(C)C)N(C)C(=O)CN(C)C(=O)[C@H]1N[C@H]1C1CCC1)C(=O)N1CCC[C@H](N1)C(=O)OCC(C)(C)C2 [Example 288] | < 5000 | 10 to 100 | 100 to 1000 | –
19 | CCn1c(-c2cccnc2[C@H](C)OC)c2c3cc(ccc31)-c1cc(O)cc(c1)C[C@H](NC(=O)[C@H](C1CCCC1)N(C)C(=O)[C@@H](C)N(C)C(=O)[C@@H]1N[C@@H]1C1CC1)C(=O)N1CCC[C@H](N1)C(=O)OCC(C)(C)C2 [Example 327] | – | – | – | IC50 (KRAS G12V): 1000 to 10000 nM
